Values quoted from earlier work as cited in US20250387524A1, “METHOD AND SYSTEM FOR THE PRODUCTION OF DISINFECTION AND/OR STERILISATION SOLUTIONS” (UNIVERSITAT JAUME I, priority 2022, published 2025).

Conditions: EU-US approved

## O=Cc1ccccc1C=O [Orto-phtalaldehyde]
  Minimum biocidal concentration: 0.55%

## O=CCCCC=O [Glutaraldehyde]
  Minimum biocidal concentration: ≥2%
